This passage reports RP-LC retention time results from the METLIN SMRT retention time set (Domingo-Almenara et al. 2019).

Molecules are shown by their SMILES.

This data set can be described thus: gradient 5% acetonitrile 3 min, to 50% in 2 min, to 85% in 15 min, held 3 min, 100 µL/min. Particulars: column: Zorbax Extend-C18 2.1 x 50 mm; eluents: water / acetonitrile, 0.1% formic acid. The essentials:
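Standards, all pure, were combined into mixtures of ~100 molecules and run at 100 μL/min on a Zorbax Extend-C18 column (2.1 × 50 mm, 1.8 μm) with water and acetonitrile, each containing 0.1% formic acid. A coupled quadrupole time-of-flight mass spectrometer operated in positive and negative ionization mode. Retention time values come from computationally picked adduct peaks, each inspected manually.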
Consider `Cc1cnc(C(=O)NC2C[C@H]3CC[C@@H](C2)N3C(=O)C2CC2)cn1` (some centres undefined), for which the RP-LC retention time was 606 s.
The value for `Cc1ccnc(NS(=O)(=O)c2ccc(NC(=O)c3ccc4ncsc4c3)cc2)n1` was 626 s.
As for `CC(C)c1ccc(NC(=O)C2CCCN(C(=O)C3Sc4ccccc4NC3=O)C2)cc1` (centres undefined), the figure is 913 s.
The value for `COC(=O)c1ccc(Cn2nc(C3CC3)c3cnn(-c4cccc(Cl)c4)c3c2=O)cc1` was 1170 s; that for `CCc1noc([C@@H]2CC(F)(F)CN2C(=O)Cn2ccnc2)n1` was 570 s; that for `CCN(CC)C(=O)N1CC(Oc2ccc(-c3nc(C)no3)cc2)C1` was 824 s.
`CCNc1nc(N(CC)CC)nc(-n2cnc(SC)n2)n1` had an RP-LC retention time of 964 s.
As for `Cc1noc(-c2ccnc(-n3cnc(C(=O)NC(C)c4ccc(F)cc4)c3)c2)n1` (centres undefined), the figure is 885 s.
Compound `CCc1nc2cc(-c3noc(-c4cc(Cl)ccc4OC)n3)ccc2o1` had an RP-LC retention time of 1220 s.
As for `Cc1ccc(C(CC(=O)NCCN2CCOCC2)N2Cc3ccccc3C2=O)cc1` (centres undefined), the figure is 642 s; as for `COc1ccc(Cl)cc1NC(=O)N1CCC(n2cnc3ccc(F)cc3c2=O)CC1`, 871 s; as for `Cc1noc(-c2ccc(=O)n(Cc3ccccc3C)n2)n1`, 851 s.
The value for `CCC(C)NC(=O)Cn1nc2c3sc(N(C)C)nc3ncn2c1=O` (centres undefined) was 1130 s.
As for `Fc1cccc(-c2nc(-c3ccc4c(c3)ncn4CCN3CCCC3)no2)c1`, the figure is 634 s; as for `Cc1cnc(C2CC2)n1C1CCN(C(=O)c2cccn2C)C1` (centres undefined), 583 s; as for `Cc1ccc(-c2noc(C3CC(=O)N(c4ccc(C)c(F)c4)C3)n2)cc1` (centres undefined), 1110 s.
`CCn1ncc(NC(=O)c2ccc(F)cc2)c(N2CCOCC2)c1=O` yielded an RP-LC retention time of 772 s.
`COc1ccc(-c2c(C)noc2NC(C)=O)cc1S(=O)(=O)Nc1cc(F)ccc1F` displayed an RP-LC retention time of 748 s.
Consider `Cc1cccc(NC(=O)Cn2ccc3sccc3c2=O)c1C`, for which the RP-LC retention time came to 741 s.
The value for `COc1ccccc1CN1CCc2nc(N3CCN(c4ccccc4F)CC3)ncc2C1` was 808 s; that for `O=C(c1ccc(OCC2CCCN2C(=O)c2ccccc2F)cc1)N1CCCC1` (centres undefined) was 813 s.
`COc1ccc([C@@H]2CC(=O)c3c(O)cc(O[C@@H]4O[C@H](CO)[C@@H](O)[C@H](O)[C@H]4OC4O[C@@H](C)[C@H](O)[C@@H](O)[C@H]4O)cc3O2)cc1O` (some centres undefined) registered an RP-LC retention time of 652 s.
The value for `CCOC(=O)c1c(-c2ccc(OC)c(OC)c2)csc1NC(=O)CN1CCCC1` was 566 s; that for `Cc1cc(S(=O)(=O)N2CCCCC2c2nncn2C)ccc1F` (centres undefined) was 717 s.
As for `O=C(NCc1ccccn1)C(=O)Nc1ccc(F)c(Cl)c1`, the figure is 632 s.
Consider `CCOC(=O)C1CCN(C(=O)C2CCN(S(=O)(=O)c3cc(Cl)ccc3OCC)CC2)CC1`, for which the RP-LC retention time came to 936 s.
As for `CC(=O)c1ccc(NC(=O)Cn2c(C)cc(-c3nnc(C4CCC4)o3)c2C)cc1`, the figure is 813 s; as for `Cn1ncc(NC(=O)c2cccc(Cl)c2)c(N2CCOCC2)c1=O`, 777 s.
Take `Cc1ccc(S(=O)(=O)Cc2cccc(-c3nc(-c4ccc5c(c4)oc(=O)n5C)no3)c2)cc1`: the RP-LC retention time came to 1030 s.
As for `CC(C)NC(=O)c1cc(N2CCCC2)nc2ccccc12`, the figure is 594 s; as for `O=c1ccn(-c2cccc(F)c2)nc1-c1nc(-c2ccccc2)no1`, 851 s; as for `CCS(=O)(=O)N1CC(=O)N(c2ccc(F)cc2C)C(C)(C(=O)NCc2ccc(F)cc2)C1` (centres undefined), 832 s.
Consider `Cc1ccc(NC(=O)N2C[C@@H](F)C[C@H]2C(=O)N2CCc3ccccc3C2)cc1F`, for which the RP-LC retention time amounted to 873 s.
The value for `C/C(=N\O)C1CC(CC(=O)O)C1(C)C` (centres undefined) was 688 s; that for `CCc1ccc(NC(=O)N(C)CC2CCOC2)cc1` (centres undefined) was 739 s; that for `COC(=O)c1c(NCc2ccc(F)cc2F)c2cccc(Cl)c2[nH]c1=O` was 822 s.
The value for `COc1ccc(NC(=O)CCc2c(C)nn(-c3cc(N(C)C)ncn3)c2C)c(OC)c1` was 776 s.
`O=C(Cc1nnc(-c2ccc3ncccc3c2)o1)Nc1ccc(Cl)cc1` registered an RP-LC retention time of 760 s.
The compound `CCn1nccc1C(=O)N1CCCC1c1ccc(Cl)cc1` (centres undefined) showed an RP-LC retention time of 850 s.
The value for `Cc1[nH]nc(-c2c(C)sc(C)c2S(=O)(=O)Nc2cccc(Cl)c2)c1C` was 1100 s.
Turning to `CC1CCCN(c2ccc(NC(=O)C(C)C)c(C(=O)O)c2)C1` (centres undefined), the RP-LC retention time was determined as 627 s.
As for `CCc1ccc(S(=O)(=O)N(C)CC2CCOCC2)cc1`, the figure is 911 s; as for `Cc1oc(-c2[nH]ncc2C(=O)N(C)C)cc1S(=O)(=O)NC(C)C`, 600 s; as for `Cc1nn(-c2ccc(F)cc2)c2nc(N3CCCC(C(=O)NC4CCCCC4)C3)sc12` (centres undefined), 1190 s.
As for `CCOC(=O)Cn1c(=O)c2c(nc3n2CC(C)CN3c2ccc(OC)cc2)n(C)c1=O` (centres undefined), the figure is 888 s; as for `Cc1cc(S(=O)(=O)N2CC(N(Cc3ccncc3)CC3CC3)C2)ccc1F`, 709 s.
The value for `Cc1cc(C(=O)N2CCCCC2)c2c(=O)n(CC(=O)NCCC(C)C)c(=O)n(C)c2n1` was 790 s; that for `Cc1cc(Nc2ccc(NC(=O)c3ccc4c(c3)OCO4)cc2)nc(N2CCOCC2)n1` was 656 s; that for `CCCNC(=O)C1CCN(c2ccc(SCC(=O)Nc3cc(C)c(Cl)cc3OC)nn2)CC1` was 766 s.
`Cc1ccc(Nc2nc(C(=O)NC3CCCCCC3)nc3ccccc23)cc1` yielded an RP-LC retention time of 966 s.
As for `COc1ccc2[nH]c(=O)c(CCC(=O)NCc3cccc(OC)c3OC)cc2c1`, the figure is 694 s.
As for `CCOCCOC1CCN(S(=O)(=O)Cc2ccccc2F)CC1`, the figure is 877 s; as for `Cc1ccccc1S(=O)(=O)N1CCC(C(=O)NCCc2csc(-c3cccs3)n2)CC1`, 922 s; as for `O=C(NCC(c1ccsc1)N1CCc2ccccc2C1)C(=O)Nc1ccon1` (centres undefined), 572 s.
The value for `CCc1nn2c(CNC(=O)c3ccccc3)c(-c3ccccc3)nc2s1` was 870 s; that for `CCCCC(=O)NC1(C(F)(F)F)C(=O)N(CCc2ccccc2)C(C)=C1C(C)=O` (centres undefined) was 980 s.
With `O=C(NCC1CCOCC1)c1ccccc1Br`, the RP-LC retention time was 671 s.
As for `Cc1ccc(Cl)cc1-n1ncc2c(=O)n(Cc3nc(-c4cccc(C(F)(F)F)c4)no3)cnc21`, the figure is 1180 s.
The value for `Cc1nn(CC(=O)N2CCN(c3ccccc3)CC2)c(=O)c2nc(-c3ccccc3)sc12` was 924 s; that for `CNC(=O)NC1CCN(c2ccc(C)c(C)c2)C1=O` (centres undefined) was 654 s.
As for `Cc1cccc(-c2nn3c(c2-c2ccnc4ccc(C(N)=O)cc24)CCC3)n1`, the figure is 612 s; as for `CCCN1CCn2cc(S(=O)(=O)Nc3cc(OC)cc(OC)c3)cc2C1=O`, 744 s.
Take `C[C@H]1CN(C(=O)c2c[nH]c3ccccc23)C[C@@H]1c1nc(-c2cccnc2)no1`: the RP-LC retention time came out at 711 s.
The value for `O=C(NCc1ccccc1)N1CCN(c2nc3cccnc3n(Cc3ccccc3)c2=O)CC1` was 1020 s.
As for `Cc1cccc(CNC(=O)c2cc3n(n2)CC(C)(C(=O)NC2CCCCC2)N(C)C3=O)c1` (centres undefined), the figure is 884 s; as for `Cc1cc(Cl)ccc1NC(=O)Cn1cccc1-c1nnc(C2CCC2)o1`, 1040 s.
As for `CCC(C)NC(=O)Cn1nc(-c2nc(-c3cccc(C)c3)no2)c2ccccc21` (centres undefined), the figure is 1170 s.
The compound `Cc1cc2c(cc1S(=O)(=O)N1CCCC1C(=O)N1CCN(C3CCCCC3)CC1)OCC(=O)N2` (centres undefined) came in with an RP-LC retention time of 584 s.
As for `Cc1ccc(-n2nc3c(N4CCCC(C(=O)NCc5ccc(F)cc5)C4)nnc(C)c3c2C)cc1` (centres undefined), the figure is 761 s.
`COc1ccc(S(=O)(=O)NCc2cccnc2-c2ccc(F)cc2)cc1`: the RP-LC retention time came to 714 s.
The value for `COc1ncc(C(=O)NCc2cccc(Br)c2)cn1` was 779 s.
As for `O=C(Nc1cnc(-c2ccc(C(F)(F)F)cc2)nc1)C1CCOC1` (centres undefined), the figure is 888 s; as for `O=C(NCc1ccc(F)cc1)C1CCc2nc(N3CCOCC3)ncc2C1` (centres undefined), 808 s.
The value for `CC(=O)N1CCC(C(=O)N2CCCCCCN(C)C(=O)[C@@H]3CCC[C@@H]32)CC1` was 658 s; that for `COC(=O)c1ccc(Cn2nc(C3CCN(S(C)(=O)=O)CC3)n(C)c2=O)cc1` was 642 s; that for `CC1(C(=O)NCc2ccccc2)CCCN(C(=O)Nc2ccc(Br)cc2F)C1` (centres undefined) was 1030 s.
In turn, `CC(C)(C)NC(=O)CCc1ccc2nc(-c3ccccc3)[nH]c2c1` registered an RP-LC retention time of 632 s.
`CC(C)(C)NCCC(O)c1cc(C(F)(F)F)nc2c(C(F)(F)F)cccc12` (centres undefined) gave an RP-LC retention time of 718 s.
As for `CCOC(=O)c1cccc(N2C=C(C#N)S(=O)(=O)c3ccc(F)cc32)c1`, the figure is 939 s.
